Laboratory results: patent publication US4182760A, “Benzophenone anti-oximes, diazepin-N-oxides, and their use as pharmaceutical agents and as intermediates for pharmaceutical agents” (E. I. Du Pont de Nemours and Company, priority 1977, dated 1980)

Key:
auditory pinna reflex = experiment: Auditory Pinna Reflex test (loss of auditory pinna reflex); assay type: in vivo, mouse; details: fasted female white mice, intubated (oral), tested at 0.5, 2, 5 and 24 hours; for ED50: Mus musculus, read-out: Mouse ED50, Pinna Reflexes, Auditory
Experimental: (§1) Standard procedures for detecting and comparing the tranquilizer, muscle-relaxant, and sedative activity of compounds in this series for which there is a correlation with human efficacy are the following: pinna reflex tests, prehensile traction reflex tests, a muscle relaxant (anti-Straub tail) test, an antipentylenetetrazole test, and a mouse activity supression test (MAST).
(§2) Fasted female white mice, 5 per dose are intubated with drug at 4, 12, 36, 108 and 324 mg/kg in 1% Methocel®-1.25% Tween 80®, at 10 ml/kg. The auditory and tactile pinna are tested at 0.5, 2, 5 and 24 hours.
The mouse is placed on a horizontal bar 9 cm from a Galton whistle adjusted for 13 Kc. Failure to flatten the ears during one or two short bursts of sound constitutes loss of auditory pinna reflex.
(§3) Potency in the antipentylenetetrazole (PTZ) and the MAST indicates a potent antianxiety agent. Great potency for blockade of the mouse auditory pinna reflex with little or no effect on tactile pinna reflex is characteristic of minor tranquilizers. Centrally acting skeletal muscle relaxants profoundly affect the lift reflex with little effect on the grip reflex.
(§4) The following table includes the results of these tests conducted with the compounds of this invention; it also includes the results for diazepam and chlordiazepoxide, two well-known benzodiazepines widely-used commercially as tranquilizers.

tactile pinna reflex = experiment: Tactile Pinna Reflex test (loss of tactile pinna reflex); assay type: in vivo, mouse; details: fasted female white mice, intubated (oral), tested at 0.5, 2, 5 and 24 hours; for ED50: Mus musculus, read-out: Mouse ED50, Pinna Reflexes, Tactile
Experimental: as §1, §2
The mouse is held by the tail and the hairs inside the right ear are touched by the fine wire stylus from a 27 gauge needle. Failure of the mouse to twitch or move the head constitutes loss of the tactile pinna reflex.
as §3, §4

lift reflex = experiment: Prehensile traction test, lift reflex; assay type: in vivo; details: loss of lift reflex; for ED50: mouse, read-out: Mouse ED50, Prehensile Reflexes, Lift
Source text: as §1, with “prehensile traction” left out
(§5) The mouse is gently swung by the tail toward a horizontal 12 gauge wire tautly stretched 25 cm above the bench. After the mouse grasps the wire with its forepaws, its posterior end is held directly below the wire. A normal mouse grasps the wire with its forepaws and immediately lifts its hind limbs to the wire. Failure to grasp the wire with the forepaws in one of 2 trials constitutes loss of the grip reflex; failure to lift the hind limbs to grasps the wire with at least one hind paw within 5 seconds constitutes loss of the lift reflex.
as §3, §4

grip reflex = experiment: Prehensile traction test, grip reflex; assay type: in vivo; details: loss of grip reflex; for ED50: mouse, read-out: Mouse ED50, Prehensile Reflexes, Grip
Source text: as §1, with “prehensile traction” left out
as §5, §3, §4

[1] = system: morphine-induced Straub tail; experiment: Muscle relaxant (anti-Straub tail) test; assay type: in vivo, mouse; details: fasted female white mice, intubated (oral), morphine sulfate 53.7 mg/kg s.c. at 25 min, observed 30 min after test drug; for ED50: Mus musculus, 0.5 h
Source text: as §1
MUSCLE RELAXANT (ANTI-STRAUB TAIL) TEST
Fasted female white mice, 5 per dose are intubated with test drug. Twenty-five minutes later morphine sulfate is given subcutaneously at 53.7 mg/kg. Thirty minutes after test drug the mice are observed for presence of Straub tail. Quantal ED50 values for blockade of morphine-induced Straub tail are calculated.
as §3, §4

[2] = system: pentylenetetrazole (PTZ) clonic convulsions; experiment: Antipentylenetetrazole (PTZ) test; assay type: in vivo, mouse; details: fasted female white mice, intubated (oral), PTZ 40 mg/kg i.v. 30 min later; for ED50: Mus musculus, 0.5 h
Source text: as §1
ANTIPENTYLENETETRAZOLE (PTZ) TEST
Fasted female white mice, 10 per dose are intubated with drug in vehicle as above at doses such as 0, 1, 3, 9, 27 and 81 mg/kg. Thirty minutes later the mice are dosed intravenously with PTZ (Metrazol®^1) at 40 mg/kg (ED98 for clonic convulsions). Dosed animals which remain on a 4"×4" platform for 20 seconds are considered protected. Quantal ED50's are calculated by the moving average method.
^1 Original brand of pentylenetetrazole; sterile 10% aqueous solution for parenteral injection, Knoll Pharmaceutical Company.
as §3, §4

[3] = system: shock-induced suppression of exploratory locomotor behavior; experiment: Mouse activity suppression test (MAST); assay type: in vivo; details: fasted female white mice, dosed orally, 0.2 ma shock for 2.0 seconds per crossing; for ED20: Mus musculus, po
Source text: as §1
MOUSE ACTIVITY S[…] (MAST)
The mouse activity s[…] (MAST) is a model system designed to detect compounds with possible antianxiety activity in humans. […] The punishment, an electric shock applied through the mouse's paws, quickly extinguishes normal behavior.
The test procedure is modified from Boissier, et al., European J. Pharm., 4, 145-151 (1968). Female white mice, fasted 16-22 hours, are randomly distributed to fiberglass holding boxes. Mice in groups of 10-20 are dosed orally and returned to their holding boxes until test time. Test drug suspensions or solutions are prepared by sonication in 1% Methocel®. Typical dose ranges include 0.5, 1, 2, and 4 mg/kg of 1, 3, 9, 27, 81 mg/kg plus a vehicle control and are selected to include one dose at which an effect such as sedation, stimulation, muscle weakness or analgesia was seen.
The test apparatus is an opaque, black plastic box with a clear lid and a stainless steel grid floor. The floor of the test box is marked off into four squares of equal size.
After dosing, a mouse is gently placed in one corner of the testing box and during the next minute each time the mouse makes a full crossing from one square section of the box to another the floor is electrified with 0.2 ma current for 2.0 seconds.
The number of shocks received by each mouse is recorded and the mean number of shocks/dose (X) is determined. When X drug at any dose is statistically greater than X controls (Kruskal-Wallis test in S. Siegel^1), antagonism of suppression obtains and the drug is presumed to have antianxiety activity.
^1 S. Siegel: Non-parametric Statistics for Behavioral Sciences, pp. 184-194, McGraw-Hill (1956).
as §3, §4

## 5-Chloro-2-(N-methyl-N-chlorofluoroacetamido)benzophenone anti-Oxime [(I)]
Auditory pinna reflex
  Mouse ED50, Pinna Reflexes, Auditory: 23.
Tactile pinna reflex
  Mouse ED50, Pinna Reflexes, Tactile: 360.
Lift reflex
  Mouse ED50, Prehensile Reflexes, Lift: 36.
Grip reflex
  Mouse ED50, Prehensile Reflexes, Grip: 70.
[1]
  Mouse ED50, Muscle Relaxant: 5.8
[2]
  Mouse ED50, PTZ: 4.5
[3]
  Mast ED20%: 3.5

## CN1C(=O)C(F)[N+]([O-])=C(c2ccccc2)c2cc(Cl)ccc21 (stereo not shown) [(II), 7-Chloro-3-fluoro-1,3-dihydro-1-methyl-5-phenyl-2H-1,4-benzodiazepin-2-one 4-Oxide]
Auditory pinna reflex
  ED50: 62 mg/kg
Tactile pinna reflex
  ED50: > 450 mg/kg
Lift reflex
  ED50: 62 mg/kg
Grip reflex
  ED50: > 450 mg/kg
[1]
  ED50: 1.7 mg/kg
[2]
  ED50: 3.9 mg/kg
[3]
  ED20: 0.35 mg/kg

## CNC1=Nc2ccc(Cl)cc2C(c2ccccc2)=[N+]([O-])C1 [Chlordiazepoxide]
Auditory pinna reflex
  ED50: 17 mg/kg
Tactile pinna reflex
  ED50: 209 mg/kg
Lift reflex
  ED50: 11 mg/kg
Grip reflex
  ED50: 232 mg/kg
[1]
  ED50: 1.9 mg/kg
[2]
  ED50: 4.5 mg/kg
[3]
  ED20: 1.9 mg/kg

## CN1C(=O)CN=C(c2ccccc2)c2cc(Cl)ccc21 [Diazepam]
Auditory pinna reflex
  ED50: 4 mg/kg
Tactile pinna reflex
  ED50: 109 mg/kg
Lift reflex
  ED50: 6 mg/kg
Grip reflex
  ED50: 97 mg/kg
[1]
  ED50: 0.25 mg/kg
[2]
  ED50: 1.3 mg/kg
[3]
  ED20: 0.45 mg/kg
